One compound from BindingDB's records for doi:10.1021/jm00055a010 (Salk Institute, 1993) can be followed below.

The target in this assay is T1, Neuropeptide Y receptor type 1 (Homo sapiens, UniProt P25929).
T1 sequence (P25929 whole entry): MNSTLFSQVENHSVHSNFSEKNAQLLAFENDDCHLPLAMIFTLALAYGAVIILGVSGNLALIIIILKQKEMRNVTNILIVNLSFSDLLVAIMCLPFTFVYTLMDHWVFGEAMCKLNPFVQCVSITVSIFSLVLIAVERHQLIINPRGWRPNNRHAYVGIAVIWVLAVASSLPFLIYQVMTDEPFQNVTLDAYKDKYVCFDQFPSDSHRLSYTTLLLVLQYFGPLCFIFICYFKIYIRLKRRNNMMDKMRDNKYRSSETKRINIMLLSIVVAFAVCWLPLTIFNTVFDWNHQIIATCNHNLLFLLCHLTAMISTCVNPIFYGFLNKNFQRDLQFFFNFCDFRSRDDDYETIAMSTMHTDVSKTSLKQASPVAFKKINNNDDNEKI
Description: Tested against neuropeptide Y1 receptors using SK-N-MC human neuroblastoma cells.

One may read the Ki as the equilibrium dissociation constant of an inhibitor or competing ligand from its target. Low readings indicate tighter binding, high ones weaker binding.

On to `CC[C@H](C)[C@H](NC(=O)[C@H](CC(C)C)NC(=O)[C@H](CC(N)=O)NC(=O)[C@@H](NC(=O)[C@H]1CNC(=O)CC[C@H](NC(=O)[C@@H](N)Cc2ccc(O)cc2)C(=O)N[C@@H](CO)C(=O)N[C@@H](CCCCN)C(=O)N2CCC[C@H]2C(=O)NCC(=O)N[C@@H](CCCN=C(N)N)C(=O)N[C@@H](Cc2c[nH]cn2)C(=O)N1)[C@@H](C)CC)C(=O)N[C@H](C(=O)N[C@@H](CCCN=C(N)N)C(=O)N[C@@H](CCC(N)=O)C(=O)N[C@@H](CCCN=C(N)N)C(=O)N[C@@H](Cc1ccc(O)cc1)C(N)=O)[C@@H](C)O`, for which the Ki is > 1000 nM.
